According to PMC10261104, “Regioselective stilbene O-methylations in Saccharinae grasses” (Nature Communications, 2023):

Columns and labels:
[1] = biological target: T1, SbSOMT (stilbene O-methyltransferase) (Sorghum bicolor, UniProt A0A1B6PFV1); assay: ITC; assay type: binding
T1 construct: gene SORBI_3007G059100; residues 2–377

[2] = biological target: T2, SbCOMT (caffeic acid O-methyltransferase) (Sorghum bicolor, UniProt C5YH12); assay: ITC; assay type: binding
T2 construct: gene SORBI_3007G047300; residues 2–362
T2 sequence (C5YH12 2-362): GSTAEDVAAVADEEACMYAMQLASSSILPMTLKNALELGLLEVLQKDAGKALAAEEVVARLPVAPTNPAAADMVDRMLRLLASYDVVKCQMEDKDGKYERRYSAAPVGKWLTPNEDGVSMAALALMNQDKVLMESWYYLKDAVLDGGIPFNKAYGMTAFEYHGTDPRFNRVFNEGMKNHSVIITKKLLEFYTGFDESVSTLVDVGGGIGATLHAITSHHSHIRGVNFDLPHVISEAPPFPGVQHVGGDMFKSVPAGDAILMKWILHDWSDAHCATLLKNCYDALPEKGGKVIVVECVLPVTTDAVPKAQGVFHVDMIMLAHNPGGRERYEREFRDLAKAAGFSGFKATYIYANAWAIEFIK

[3] = biological target: T2, SbCOMT (caffeic acid O-methyltransferase); assay: ITC; […]ʹ-O-methylation enzyme assay; assay type: binding
[4] = biological target: T2, SbCOMT (caffeic acid O-methyltransferase); assay: ITC; enzyme kinetics (Km […]); assay type: binding
[5] = biological target: T1, SbSOMT (stilbene O-methyltransferase); assay: ITC; X-ray crystal structure ([…] Å, ternary complex); enzyme kinetics (Km […]); assay type: binding
[6] = biological target: T1, SbSOMT (stilbene O-methyltransferase); assay: ITC; X-ray crystal structure ([…] Å, ternary complex); assay type: binding
[7] = biological target: T1, SbSOMT (stilbene O-methyltransferase); assay: ITC; X-ray crystal structures (binary, and ternary with β-NAD at […] Å); methylation assay; assay type: binding
[8] = biological target: Sorghum bicolor stilbene O-methyltransferase (SbSOMT) (Sorghum bicolor); assay: crystal structure; SbSOMT co-crystallised with resveratrol, pinostilbene or pterostilbene, with or without β-NAD; sitting drop vapor diffusion, 18 °C

T1 sequence (A0A1B6PFV1 2-377): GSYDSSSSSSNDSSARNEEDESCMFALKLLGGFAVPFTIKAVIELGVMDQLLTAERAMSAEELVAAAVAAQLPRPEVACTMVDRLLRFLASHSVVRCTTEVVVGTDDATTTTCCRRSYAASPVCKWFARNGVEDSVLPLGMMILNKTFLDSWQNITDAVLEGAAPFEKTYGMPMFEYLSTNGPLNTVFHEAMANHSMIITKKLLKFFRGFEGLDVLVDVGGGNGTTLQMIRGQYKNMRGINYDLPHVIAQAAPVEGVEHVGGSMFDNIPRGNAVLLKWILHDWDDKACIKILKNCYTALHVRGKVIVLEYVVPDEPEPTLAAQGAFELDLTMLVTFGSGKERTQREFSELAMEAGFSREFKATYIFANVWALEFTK

## C[S+](CC[C@H](N)C(=O)[O-])C[C@H]1O[C@@H](n2cnc3c(N)ncnc32)[C@H](O)[C@@H]1O (stereo partly shown) [SAM]
[1]
  Kd: 90 µM
[2]; read-out: SbCOMT
  Kd: 13 µM

## Oc1cc(O)cc(/C=C/c2ccc(O)c(O)c2)c1 [piceatannol]
[3]
  Kd: 1260 nM

## COc1cc(O)cc(/C=C/c2ccc(O)cc2)c1 [pinostilbene]
[4]
  Kd: 1790 nM
[5]
  Kd: 2860 nM

## COc1cc(/C=C/c2ccc(O)cc2)cc(OC)c1 [pterostilbene]
[6]
  Kd: 11.2 µM
[2]; read-out: SbCOMT
  Kd: 3.99 µM

## Oc1ccc(/C=C/c2cc(O)cc(O)c2)cc1 [resveratrol]
[7]
  Kd: 4.69 µM
[2]
  Kd: 1.55 µM

## Sorghum bicolor stilbene O-methyltransferase (SbSOMT) (enzyme)
[8]
  stoichiometry N: 2
